How the values were obtained:
Lck enzyme = Lck enzyme (Homo sapiens (Human), UniProt P06239); assay: Lck enzyme activity, IMAP fluorescence polarization assay; settings: 60 min pre-incubation, 6 μM ATP, bin bounds in μM
Lyn enzyme = Lyn enzyme (Homo sapiens (Human), UniProt P07948); assay: Lyn enzyme activity, IMAP fluorescence polarization assay; settings: 60 min pre-incubation, 2 μM ATP, bin bounds in μM
Btk enzyme (His-Btk) = Btk enzyme (His-Btk) (Homo sapiens (Human), UniProt Q06187); assay: Btk enzyme activity, IMAP fluorescence polarization assay; settings: 60 min pre-incubation, 5 μM ATP
Chain of Btk enzyme (His-Btk) (Q06187 whole entry): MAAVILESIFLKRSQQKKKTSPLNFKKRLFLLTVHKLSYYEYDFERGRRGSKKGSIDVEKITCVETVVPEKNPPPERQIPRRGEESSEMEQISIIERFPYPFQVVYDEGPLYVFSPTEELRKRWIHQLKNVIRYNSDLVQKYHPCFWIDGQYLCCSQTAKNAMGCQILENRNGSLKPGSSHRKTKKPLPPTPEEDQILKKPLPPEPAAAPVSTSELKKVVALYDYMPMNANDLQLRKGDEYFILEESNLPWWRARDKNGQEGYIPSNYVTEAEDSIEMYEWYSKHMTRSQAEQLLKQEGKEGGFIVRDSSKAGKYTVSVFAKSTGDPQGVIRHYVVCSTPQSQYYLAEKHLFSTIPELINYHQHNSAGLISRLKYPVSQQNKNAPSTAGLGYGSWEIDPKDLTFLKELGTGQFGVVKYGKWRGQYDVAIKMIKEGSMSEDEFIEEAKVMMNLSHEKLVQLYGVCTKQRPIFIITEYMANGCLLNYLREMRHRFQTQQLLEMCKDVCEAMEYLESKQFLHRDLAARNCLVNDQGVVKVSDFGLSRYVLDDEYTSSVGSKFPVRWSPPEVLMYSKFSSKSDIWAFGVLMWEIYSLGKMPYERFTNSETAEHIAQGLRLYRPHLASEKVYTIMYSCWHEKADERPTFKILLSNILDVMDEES

Chain of Lck enzyme (P06239 whole entry): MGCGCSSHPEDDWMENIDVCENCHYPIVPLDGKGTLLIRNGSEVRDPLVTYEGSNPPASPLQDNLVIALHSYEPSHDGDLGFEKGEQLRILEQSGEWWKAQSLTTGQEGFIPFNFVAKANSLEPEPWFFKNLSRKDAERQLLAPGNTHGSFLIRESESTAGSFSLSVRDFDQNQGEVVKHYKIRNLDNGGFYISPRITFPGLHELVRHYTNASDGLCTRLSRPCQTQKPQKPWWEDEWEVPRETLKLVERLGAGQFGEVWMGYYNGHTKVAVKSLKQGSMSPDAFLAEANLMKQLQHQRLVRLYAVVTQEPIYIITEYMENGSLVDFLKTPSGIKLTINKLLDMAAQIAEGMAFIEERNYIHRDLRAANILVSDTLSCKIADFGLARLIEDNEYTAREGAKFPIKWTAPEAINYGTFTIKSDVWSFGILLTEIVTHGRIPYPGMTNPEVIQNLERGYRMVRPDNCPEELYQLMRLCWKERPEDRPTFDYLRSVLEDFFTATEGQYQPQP
Chain of Lyn enzyme (P07948 whole entry): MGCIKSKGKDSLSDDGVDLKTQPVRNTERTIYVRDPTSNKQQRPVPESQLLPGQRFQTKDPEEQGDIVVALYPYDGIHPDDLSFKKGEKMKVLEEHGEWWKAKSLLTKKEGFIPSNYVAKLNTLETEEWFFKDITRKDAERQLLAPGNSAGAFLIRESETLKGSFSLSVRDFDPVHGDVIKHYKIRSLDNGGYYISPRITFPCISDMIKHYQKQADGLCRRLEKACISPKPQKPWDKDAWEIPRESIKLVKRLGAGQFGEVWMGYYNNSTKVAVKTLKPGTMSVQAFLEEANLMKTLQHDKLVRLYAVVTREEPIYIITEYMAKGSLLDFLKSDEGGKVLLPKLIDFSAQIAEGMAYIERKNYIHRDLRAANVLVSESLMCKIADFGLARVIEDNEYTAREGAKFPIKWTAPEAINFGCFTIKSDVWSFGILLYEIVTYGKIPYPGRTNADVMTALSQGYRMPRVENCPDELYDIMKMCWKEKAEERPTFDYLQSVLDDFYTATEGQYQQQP

SMILES	EC50 Lck activity values (Lck enzyme)	EC50 Lyn activity values (Lyn enzyme)	EC50 Btk activity values (Btk enzyme (His-Btk); bin bounds in μM)	EC50 Btk activity values (Btk enzyme (His-Btk); bin bounds in nM)
C=CC(=O)N1CCC[C@H]1c1nc(-c2ccc(C(=O)Nc3cc(C(F)(F)F)ccn3)cc2)c2c(N)nccn12 [Example 62, (S)-4-(3-(1-acryloylpyrrolidin-2-yl)-8-aminoimidazo[1,5-a]pyrazin-1-yl)-N-(4-(trifluoromethyl)pyridin-2-yl)benzamide]	<1 µM	–	–	–
C=CC(=O)N1CCC[C@H]1c1nc(-c2ccc(C(=O)Nc3cc(CCC)ccn3)cc2)c2c(N)nccn12 [Example 125, (S)-4-(3-(1-acryloylpyrrolidin-2-yl)-8-aminoimidazo[1,5-a]pyrazin-1-yl)-N-(4-propylpyridin-2-yl)benzamide]	<1 µM	<1 µM	–	–
C=CC(=O)N1CCC[C@H]1c1nc(-c2ccc(C(=O)Nc3cc(CC)ccn3)cc2)c2c(N)nccn12 [Example 126, (S)-4-(3-(1-acryloylpyrrolidin-2-yl)-8-aminoimidazo[1,5-a]pyrazin-1-yl)-N-(4-ethylpyridin-2-yl)benzamide]	<1 µM	<1 µM	–	–
Nc1nccn2c([C@@H]3CCCN3C(=O)/C=C/c3ccccc3)nc(-c3ccc(C(=O)Nc4ccccn4)cc3)c12 [Example 104, (S,E)-4-(8-amino-3-(1-cinnamoylpyrrolidin-2-yl)imidazo[1,5-a]pyrazin-1-yl)-N-(pyridin-2-yl)benzamide]	<1 µM	–	<1 µM	–
CC#CC(=O)N1CCCC[C@H]1c1nc(-c2ccc(C(=O)Nc3cc(CCC)ccn3)cc2)c2c(N)nccn12 [Example 64, (S)-4-(8-amino-3-(1-but-2-ynoylpiperidin-2-yl)imidazo[1,5-a]pyrazin-1-yl)-N-(4-propylpyridin-2-yl)benzamide]	<1 µM	–	–	–
C=CC(=O)N1CCC[C@H]1c1nc(-c2ccc(C(=O)Nc3cc(C)ccn3)cc2)c2c(N)nccn12 [Example 124, (S)-4-(3-(1-acryloylpyrrolidin-2-yl)-8-aminoimidazo[1,5-a]pyrazin-1-yl)-N-(4-methylpyridin-2-yl)benzamide]	<1 µM	<1 µM	–	–
CC#CC(=O)N1CCC[C@H]1c1nc(-c2ccc(C(=O)Nc3cc(-c4ccccc4)ccn3)cc2)c2c(N)nccn12 [Example 132, (S)-4-(8-amino-3-(1-but-2-ynoylpyrrolidin-2-yl)imidazo[1,5-a]pyrazin-1-yl)-N-(4-phenylpyridin-2-yl)benzamide]	<1 µM	–	–	–
CC#CC(=O)N1CCC[C@H]1c1nc(-c2ccc(C(=O)Nc3nccs3)cc2)c2c(N)nccn12 [Example 60, (S)-4-(8-amino-3-(1-but-2-ynoylpyrrolidin-2-yl)imidazo[1,5-a]pyrazin-1-yl)-N-(thiazol-2-yl)benzamide]	<1 µM	<1 µM	–	<0.1 µM
C=CC(=O)N1CCC[C@H]1c1nc(-c2ccc(C(=O)Nc3cc(-c4ccccc4)ccn3)cc2)c2c(N)nccn12 [Example 133, (S)-4-(3-(1-acryloylpyrrolidin-2-yl)-8-aminoimidazo[1,5-a]pyrazin-1-yl)-N-(4-phenylpyridin-2-yl)benzamide]	<1 µM	<1 µM	–	–
CCCc1ccnc(NC(=O)c2ccc(-c3nc([C@H](C)N(C)C(=O)/C=C/CN(C)C)n4ccnc(N)c34)cc2)c1 [Example 76, (S,E)-4-(8-amino-3-(1-(4-(dimethylamino)-N-methylbut-2-enamido)ethyl)imidazo[1,5-a]pyrazin-1-yl)-N-(4-propylpyridin-2-yl)benzamide]	<1 µM	–	–	–
C=CC(=O)N1CCC[C@H]1c1nc(-c2ccc(C(=O)Nc3cc(C#N)ccn3)cc2)c2c(N)nccn12 [Example 122, (S)-4-(3-(1-acryloylpyrrolidin-2-yl)-8-aminoimidazo[1,5-a]pyrazin-1-yl)-N-(4-cyanopyridin-2-yl)benzamide]	<1 µM	–	–	–
